{"source": "patent US20160279204A1", "about": "“PEPTIDES AND PHARMACEUTICAL COMPOSITIONS FOR USE IN THE TREATMENT BY NASAL ADMINISTRATION OF PATIENTS SUFFERING FROM ANXIETY AND SLEEP DISORDERS” (MAX-PLANCK-GESELLSCHAFT ZUR FÖRDERUNG DER WISSENSCHAFT E.V., priority 2011, published 2016)", "key": {"C57BL/6N mice": {"test_system": "C57BL/6N mice", "experiment": "Open field after bilateral NPS injection into CA1 of the VH", "type": "in vivo, mouse", "settings": "0.1 nmol NPS each side into CA1 of VH, 30 min", "experimental": "Animals were fixed in a stereotactic frame and maintained under isoflurane anesthesia (Forene® 100%, V/V; induction: 2.5%; maintenance: 1.5%; in O2; flow rate: 1 L/min). The mice received acute analgesic treatment with Metacam s.c. during surgery (0.5 mg/kg; in NaCl). 23 gauge stainless-steel guide cannulas were implanted in the CA1 region of the VH at the following coordinates: 3.1 mm posterior, ±3 mm lateral from bregma, and 2 mm ventral from the skull surface (Franklin and Paxinos, 2007). The guide cannulas were fixed with two screws and a two-component adhesive. For behavioural experiments, animals were implanted bilaterally for later bilateral injection, whereas for Cy3-NPS injections, implantation was performed unilaterally. The animals were allowed to recover for at least 6 days before starting the behavioural experiments. Substance infusions were carried out manually, on mice anesthetised by brief inhalation of isoflurane, using a 30 gauge injection cannula connected to a Tygon tube and a 10 μL Hamilton syringe. […]\nMice were injected bilaterally either with 0.1 nmol NPS in 0.5 μL ACSF for each side or with 0.5 μL of ACSF for each side. […] Animal behaviour was videotaped and relevant parameters were analysed using the tracking software ANY-maze version 4.30 (Stoelting, Wood Dale, Ill., USA). […]"}, "[1]": {"test_system": "evoked neuronal activity flow from the dentate gyrus to area CA1", "experiment": "Voltage-sensitive dye imaging (VSDI) in VH slices", "set-up": "species or system mouse", "settings": "bath application of NPS 1 μM", "experimental": "According to Maggio and Segal (2007) and Fanselow and Dong (2010), VSDI experiments were conducted in the VH. Horizontal brain slices (350 μm-thick) were prepared as described in Refojo et al., 2011 and/or von Wolff et al., 2011). Only the first two slices from the ventral surface of the brain in which the CA1 region was clearly visible were used for the measurements. Staining of slices with the voltage-sensitive dye Di-4-ANEPPS and VSDI were carried out at room temperature (23-25° C.). For staining, slices were kept for 15 min in carbogenated (95% O2/5% CO2) ACSF containing Di-4-ANEPPS (7.5 μg/mL; <0.1% DMSO). The ACSF (pH 7.4) consisted of (in mM): 125 NaCl, 2.5 KCl, 25 NaHCO3, 1.25 NaH2PO4, 2 CaCl2, 1 MgCl2, and 25 glucose. Afterwards, slices were stored for at least 30 min in pure carbogenated ACSF. In the recording chamber, slices were continuously superfused with carbogenated ACSF (3 mL/min flow rate). VSDI and data analysis were performed using the MiCAM02 hard- and software package (BrainVision, Tokyo, Japan). The tandem-lens fluorescence microscope was equipped with the MiCAM02-HR camera and the 2× and 1× lens at the objective and condensing side, respectively. Acquisition settings were: 88×60 pixels frame size, 36.4×40.0 μm pixel size, and 2.2 ms sampling time. To reduce noise, four acquisitions subsequently recorded at intervals of 5 s were averaged. Neuronal activity was evoked by square pulse electrical stimuli (200 μs, 15-20 V) delivered to the dentate gyrus granule cell layer via a custom-made monopolar tungsten electrode (Teflon-insulated to the tip of 75 μm diameter). From recorded signals, the fractional change in fluorescence (ΔF/F) was calculated. For all quantifications, ΔF/F values were spatially and temporally smoothed using a 3×3×3 average filter. VSDI signals presented in images were smoothed with a 5×5×3 average filter. Pixelation of images was reduced by the interpolation function of the MiCAM02 software. […]"}, "NPSR [2]": {"biological_target": "T1, NPSR (Mus musculus, UniProt Q8BZP8)", "T1 construct": "host or cells: rodent brain in vivo", "T1 sequence (Q8BZP8 1-371)": "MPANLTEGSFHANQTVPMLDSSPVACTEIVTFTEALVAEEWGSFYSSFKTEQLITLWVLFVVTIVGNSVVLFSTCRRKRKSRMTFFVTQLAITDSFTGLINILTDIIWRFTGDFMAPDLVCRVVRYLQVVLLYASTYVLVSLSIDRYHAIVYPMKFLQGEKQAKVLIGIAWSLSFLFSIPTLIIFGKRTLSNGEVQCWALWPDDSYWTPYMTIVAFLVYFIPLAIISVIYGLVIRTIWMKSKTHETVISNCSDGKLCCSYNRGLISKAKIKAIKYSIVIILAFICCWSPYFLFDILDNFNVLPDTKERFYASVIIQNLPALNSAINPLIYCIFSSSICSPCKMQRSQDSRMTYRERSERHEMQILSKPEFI", "settings": "rodents, ICV injection, US 2010/0056455; cited from earlier work"}, "NPSR [3]": {"test_system": "NPSR", "settings": "cited from earlier work"}}, "note": "“Also recorded” adds a separate entry of the source.", "data": [{"substance": "neuropeptide S (SFRNGVGSGVKKTSFRRAKQ; Neuropeptide S; UniProt P0C0P7 70-89, looked up) [NPS, peptide agonist of neuropeptide S receptor (NPSR); native NPS, rat, from Bachem]", "values": [{"measurement": "distance traveled / locomotion in the open field", "setting": "C57BL/6N mice", "result": "did not affect locomotion; also recorded: not changed"}, {"measurement": "activity flow from the dentate gyrus to the CA1 subfield", "setting": "[1]", "result": "rapidly weakened"}, {"measurement": "FDS peak amplitudes", "setting": "[1]; dentate hilus, CA3 region, area CA1", "result": "reduced the amplitude of FDSs in the dentate hilus, the CA3 region, and area CA1; also recorded: decreased FDS peak amplitudes"}, {"measurement": "locomotor activity and wakefulness", "setting": "NPSR [2]", "result": "increased locomotor activity and wakefulness"}, {"measurement": "response of NPSR-KO mice to NPS treatment", "setting": "NPSR [3]; NPSR-KO mice, Duangdao et al., 2009", "result": "resistant"}, {"measurement": "anxiolytic effects", "setting": "NPSR [3]; rodents, intracerebral and ICV injection", "result": "strong anxiolytic effects"}]}]}
